row,melting point [°C],SMILES
1,218 to 220,Nc1ccnc(N2CCCC2)n1
2,217 to 219,O=[N+]([O-])c1cc(S(=O)(=O)N2CCOCC2)ccc1O
3,131 to 133,Cc1cn(-c2ncccc2F)nc1N
4,82 to 84,CC(C)CN1C(=O)C(=O)c2ccccc21
5,35 to 37,FC(F)(F)c1ccccc1-c1nnc(CCl)o1
6,391 to 393,Cn1c(=O)[nH]c2cc(C(=O)O)ccc21
7,128 to 129,CCOc1cc(Br)c(CC(=O)O)cc1OCC
8,199 to 201,Cn1cc(C(=O)O)c(C(F)F)n1
9,148 to 150,N#Cc1c(Cl)nc(Cl)c(Cl)c1Cl
10,249 to 251,O=C(O)Cn1ccc(=O)c([N+](=O)[O-])c1
11,110 to 112,O=C(CCl)NC12CC3CC(CC(C3)C1)C2
12,134 to 136,O=C(Nc1ccccn1)c1ccc(Br)cc1
13,240 to 242,O=c1[nH]c2cc(F)ccc2c(=O)o1
14,48 to 52,CC(=O)CC(=O)c1ccc(F)cc1
15,169 to 171,O=C(O)C1CC2CCCCC2N1C(=O)OCC1c2ccccc2-c2ccccc21 (stereo not given)
16,174 to 176,Cc1ccc(CNC(=O)NCC(=O)O)cc1
17,172 to 174,Sc1nncn1-c1ccccc1
18,169 to 171,Nc1ccc2nncn2c1
19,48 to 50,Clc1noc(-c2ccoc2)n1
20,103 to 105,Nc1ccccc1C(=O)Nc1ccc(F)cc1Cl
21,93 to 95,Cc1cc([N+](=O)[O-])ccc1OCCO
22,124 to 126,O=C(Nc1cccc(-c2nnnn2C2CC2)c1)OCC(F)(F)F
23,199 to 201,CNS(=O)(=O)c1ccc(Sc2ccccc2C(=O)O)cc1

row,melting point [°C],SMILES
1,80 to 82,Cc1c(N)cccc1CN1CCSCC1
2,175 to 177,CN(C)c1cccc(-c2nnc(N)o2)c1
3,107 to 109,Cc1ccc([N+](=O)[O-])cc1S(=O)(=O)N1CCC(C(=O)O)CC1
4,259 to 261,Cc1ccc(-n2[nH]c(C(=O)O)cc2=O)cc1
5,256 to 258,Cc1cc(-c2cc(C(=O)O)c3c(C)noc3n2)c(C)s1
6,185 to 187,Nc1cc(N2CCOCC2)c(F)cc1[N+](=O)[O-]
7,206 to 208,Cc1c(C(=O)O)oc2c1ccc1ccccc12
8,189 to 191,Cn1nc(CC(=O)O)c2ccccc2c1=O
9,271 to 273,O=C(O)c1ccc(N2CCOC2=O)cc1
10,62 to 64,COc1cc(C=O)cc(Br)c1OCC(=O)N(C)C
11,74 to 76,CC(=O)c1cccc(S(=O)(=O)N(C)C)c1
12,206 to 208,COc1cccc(C(N)CC(=O)O)c1OC (stereo not given)
13,189 to 191,Cc1ccc2c(c1)nc(S)n2Cc1ccccc1Cl
14,163 to 165,NC(=O)c1cccc(O)c1
15,218 to 220,CC(C)(C)c1n[nH]c(O)c1CCC#N
16,148 to 152,Nc1c(-c2ccccc2)nc2sccn12
17,119 to 121,NS(=O)(=O)c1nccs1
18,204 to 206,Cc1nn(-c2ccccc2Cl)c(C(F)F)c1C(=O)O
19,237 to 239,NNC(=O)C1CCN(c2ncccn2)CC1
20,171 to 173,O=C(O)c1ccc(OC2CCCC2)cc1
21,100 to 102,CCOC(=O)COc1ccccc1C(=O)O
22,98 to 100,O=C(Nc1cccc([N+](=O)[O-])c1)OCC(F)(F)F
23,110 to 112,NCCC(O)(c1ccccc1)C(F)(F)F (stereo not given)

row,melting point [°C],SMILES
1,166 to 168,O=C(O)c1ccc(C2CCCOC2)cc1 (stereo not given)
2,184 to 186,Cc1cc(C)n(-c2ccc(Cl)c(C(=O)O)n2)n1
3,87 to 89,NNc1c(F)cc(F)cc1Cl
4,139 to 141,COCCN1C(=O)C(=O)c2ccc(Br)cc21
5,68 to 70,N#Cc1ccc(COc2ccccc2F)cc1
6,114 to 116,Cc1nc(Cl)c2cnn(-c3ccc(F)cc3)c2n1
7,117 to 119,O=C1COc2ccc(Br)cc2N1CCCl
8,191 to 193,O=C(O)c1cnoc1-c1ccc(Cl)s1
9,250 to 252,Cn1c(C(=O)O)c(Cl)c2cc(Br)ccc21
10,110 to 112,Cc1c(C(=O)CBr)oc2ccccc12
11,192 to 194,O=[N+]([O-])c1ccc2nc(S)oc2c1
12,253 to 255,Cn1cc(-c2nnc(N)o2)cn1
13,133 to 135,Nc1cccc(CS(=O)c2ccccc2)c1 (stereo not given)
14,214 to 216,Nc1nonc1C(=O)O
15,38 to 40,CCc1cccnc1N
16,181 to 183,Cc1c(C(=O)O)nnn1-c1ccc(F)cc1
17,106 to 108,COc1cc(CCl)ccc1S(C)(=O)=O
18,85 to 87,NS(=O)(=O)C1CCOC1 (stereo not given)
19,178 to 180,O=C(O)c1ccc(Cl)c(S(=O)(=O)Nc2ccccc2N2CCOCC2)c1
20,129 to 131,CC(CO)N1Cc2cccc(N)c2C1 (stereo not given)
21,66 to 68,NC(=S)c1cccc(C(F)(F)F)c1
22,91 to 93,Cc1ccc(-c2csc(CC#N)n2)cc1
23,115 to 117,O=C(O)CSc1ccccc1Cl

row,melting point [°C],SMILES
1,98 to 100,CS(=O)(=O)Nc1ccc(Br)cc1Cl
2,199 to 201,Nc1ccc(-c2cn3ccsc3n2)cc1
3,72 to 74,O=[N+]([O-])c1c[nH]ccc1=NCC1CCCO1 (stereo not given)
4,130 to 132,CN(C)C(=O)c1ccc(Cl)c(S(N)(=O)=O)c1
5,159 to 161,CNc1cc(C(F)(F)F)nc2ccccc12
6,103 to 105,Cc1ccc(S(C)(=O)=O)c(N)c1
7,43 to 46,COc1ccc(C)c(N)c1
8,182 to 184,O=C(O)c1cc(Cl)c[nH]1
9,69 to 71,CC(C)Oc1ccc([N+](=O)[O-])cc1CBr
10,139 to 141,COc1cc(OC)c(S(=O)(=O)Cl)cc1S(=O)(=O)Cl
11,219 to 221,CC1(c2ccccc2Br)NC(=O)NC1=O (stereo not given)
12,145 to 147,O=S(=O)(Cl)CCS(=O)(=O)c1ccc(F)cc1
13,158 to 160,Nc1ccccc1C(=O)Nc1ccc(Cl)cn1
14,109 to 111,Cc1noc(C)c1CCC(=O)O
15,149 to 151,CC(C)n1nccc1C(=O)O
16,204 to 206,O=C(O)C(=Cc1cccs1)n1nnnc1-c1ccccc1
17,169 to 171,Cc1[nH]c2ccc(C(N)=O)cc2c1C
18,152 to 154,CC(Cl)C(=O)N1CC(=O)Nc2cc(C(F)(F)F)ccc21 (stereo not given)
19,217 to 219,Nc1ccc(C(=O)NC2CCOCC2)cc1
20,145 to 147,O=C(C=NO)Nc1ccc(F)cc1Cl
21,240 to 242,O=C(O)c1ccc(NS(=O)(=O)c2ccc(F)cc2)cc1
22,113 to 115,COC(=O)c1c(O)c(Cl)cc(Cl)c1Cl
23,179 to 181,O=C(Nc1cn[nH]c1)Oc1ccccc1

row,melting point [°C],SMILES
1,93 to 95,Cc1cc(F)c(C(=O)CCl)cc1F
2,199 to 201,Nc1cc(C(=O)O)cnc1Cl
3,211 to 213,Cc1nc2c(c(C)nn2C)c(C)c1CCC(=O)O
4,174 to 176,CC(C)CC(=O)NNC(=O)C(C)Cl (stereo not given)
5,47 to 49,Nc1ccc(Oc2ccc(F)cc2)nc1
6,204 to 206,CCOC(=O)c1c(C)[nH]c(C(=O)O)c1C
7,89 to 91,CCOC(=O)c1csc(NC2CC2)n1
8,98 to 100,Nc1ccccc1Oc1ccncc1
9,238 to 242,Oc1ccc(-c2nc3ccccc3[nH]2)cn1
10,267 to 269,O=C(O)c1ccc(NS(=O)(=O)c2cccc([N+](=O)[O-])c2)cc1
11,194 to 196,COc1ccc(NC2=C(Cl)C(=O)N(c3ccc(C)cc3)C2=O)cc1
12,55 to 57,CC1CC1c1ccc(C(=O)O)o1 (stereo not given)
13,109 to 111,COCc1nnc(NN)s1
14,180 to 182,CC(NC(=O)Nc1ccccc1)C(=O)O (stereo not given)
15,163 to 165,CC(=O)NC(C)(C)C(N)=NO
16,205 to 207,CC(C)c1ccc(-c2nnc(N)s2)cc1
17,139 to 141,O=C1CN(c2cc(Cl)ccc2Cl)CC(=O)N1
18,248 to 250,O=C1Nc2cc(SCc3ccccc3)ccc2C1=O
19,173 to 175,O=S(=O)(NC1=NCCN1)c1cccs1
20,88 to 90,CCC(C)c1ccc(C(=O)O)cc1 (stereo not given)
21,180 to 182,CCC1(CC)NC(=O)NC1=O
22,197 to 199,COc1ccccc1NS(=O)(=O)c1cc(N)ccc1N1CCOCC1
23,109 to 111,Nc1ccc(S(=O)(=O)NCC2CC2)cc1

row,melting point [°C],SMILES
1,57 to 59,Clc1ccc(Cl)c(OCCBr)c1
2,118 to 120,O=C(CCl)c1cnc(N2CCCCC2)s1
3,163 to 165,CN(C)S(=O)(=O)c1ccc(F)c(C(=O)O)c1
4,138 to 140,COc1ccc(Sc2nsc(N)n2)cc1
5,205 to 207,CCOC(=O)c1snc(C(N)=O)c1N
6,198 to 200,COc1cc2ncn(CCCC(=O)O)c(=O)c2cc1OC
7,193 to 195,COc1cc(C(=O)O)ccc1OCC(=O)NC(C)C
8,204 to 206,O=C(O)c1cnn(-c2cccc(Cl)c2)c1
9,246 to 248,O=C(O)c1cc(N2CCNC2=O)c(F)cc1F
10,118 to 120,C#Cc1cccc(NC(=O)CBr)c1
11,226 to 228,NS(=O)(=O)c1ccc(CCNS(=O)(=O)c2cccc(C(=O)O)c2)cc1
12,132 to 134,Cc1csc(Sc2c(N)cccc2Cl)n1
13,166 to 168,O=C(O)Cc1cc2c(ccc3ccccc32)o1
14,260 to 262,Cc1cc2nc(C)c(CCC(=O)O)c(C)n2n1
15,257 to 259,Cc1ccc(-c2nn(-c3ccccc3Cl)cc2C(=O)O)cc1
16,115 to 117,NC(=O)C(O)C1CC1 (stereo not given)
17,365 to 367,O=C(O)c1ccc2c(=O)n(-c3cccc(Cl)c3)c(=O)[nH]c2c1
18,60 to 62,CCOc1ccc(Cl)nn1
19,108 to 110,Cc1ccc(N)cc1NC(=O)CN1CCCCC1
20,166 to 168,CC(=O)N(c1ccc(C)cc1)c1nc(C=O)cs1
21,195 to 197,Cc1n[nH]c(C)c1C(C)CC(=O)O (stereo not given)
22,44 to 46,CNc1cnccn1

row,SMILES,melting point [°C]
1,CC1CCCCC1NC(=O)CCl (stereo not given),100 to 102
2,CCc1c(C(=O)O)cnn1Cc1ccccc1,124 to 126
3,Nc1ccc(C2(c3ccc(N)cc3)CCCCC2)cc1,110 to 112
